Data from US20190264193A1, “PROTEIN ENGINEERING METHODS” (Caribou Biosciences, Inc., priority 2016, published 2019).

What was measured:
DNA-PK [1] = target: T1, DNA-PK (Homo sapiens, UniProt P78527); experiment: NU7441 five point dose response on DNA repair patterns after sgRNP nucleofection; type: cell-based; conditions: HEK293 T cells
Protocol: In order to assess whether compounds can alter the DNA repair pathways, the following experiment was conducted with methods as described in van Overbeek et al., Molecular Cell (2016) http://dx.doi.org/10.1016/j.molcel.2016.06.037. Briefly, to test the hypothesis that suppression of c-NHEJ would alter the DNA repair landscapes, favoring MMEJ repair outcomes, a chemical inhibitor of DNA-PK, NU7441, was added to HEK293 T cells one hour post nucleofection in a five point dose response. Genomic lysate was harvested 48 hours post nucleofection and processed.
As inhibitor concentration increased, the mean frequency of single base insertions and small deletions (<3 base pairs) decreased, whereas the mean frequency of a subset of large deletions (>3 base pairs) present in the DNA repair profiles increased. This experiment evidences that the suppression of c-NHEJ enhances DNA repair by MMEJ pathways after DSB formation by Cas9.

DNA-PK [2] = target: T1, DNA-PK; experiment: DNA repair outcomes after Cas9 cleavage by amplicon sequencing, HEK293 plus NU7441; type: cell-based; conditions: JAK1 target site; 48 hours after nucleofection of sgRNP in HEK293 plus NU7441 (FIG. 6F)
Protocol: In order to assess DNA repair outcomes in human cells, the following experiment was conducted using methods as described in van Overbeek et al., Molecular Cell (2016) http://dx.doi.org/10.1016/j.molcel.2016.06.037. Briefly, the repair outcomes following Cas9 cleavage of double-stranded DNA, which result in blunt end products, were profiled using computational tools developed to categorize indels from a cell-based assay. To this end, HEK293, K562 and CCRF-CEM cells were transfected with pre-assembled complexes of Cas9 protein and sgRNA (single-guide RNA ribonucleoprotein complexes (sgRNPs). The Cas9/sgRNA complexes used were prepared as described in van Overbeek et al., Molecular Cell (2016) http://dx.doi.org/10.1016/j.molcel.2016.06.037. DNA repair patterns following Cas9 cleavage were analyzed by amplicon sequencing at time points as shown in FIGS. 6A-6F.
Sequencing reads were assigned to a specific indel class based on the indel type (insertion or deletion), start site, and length (or to the wild-type class), and then the frequency of each class was calculated as a fraction of aligned reads or as a fraction of mutant reads. […]

[3] = as inhibitor concentration increased

T1 sequence (P78527 whole entry): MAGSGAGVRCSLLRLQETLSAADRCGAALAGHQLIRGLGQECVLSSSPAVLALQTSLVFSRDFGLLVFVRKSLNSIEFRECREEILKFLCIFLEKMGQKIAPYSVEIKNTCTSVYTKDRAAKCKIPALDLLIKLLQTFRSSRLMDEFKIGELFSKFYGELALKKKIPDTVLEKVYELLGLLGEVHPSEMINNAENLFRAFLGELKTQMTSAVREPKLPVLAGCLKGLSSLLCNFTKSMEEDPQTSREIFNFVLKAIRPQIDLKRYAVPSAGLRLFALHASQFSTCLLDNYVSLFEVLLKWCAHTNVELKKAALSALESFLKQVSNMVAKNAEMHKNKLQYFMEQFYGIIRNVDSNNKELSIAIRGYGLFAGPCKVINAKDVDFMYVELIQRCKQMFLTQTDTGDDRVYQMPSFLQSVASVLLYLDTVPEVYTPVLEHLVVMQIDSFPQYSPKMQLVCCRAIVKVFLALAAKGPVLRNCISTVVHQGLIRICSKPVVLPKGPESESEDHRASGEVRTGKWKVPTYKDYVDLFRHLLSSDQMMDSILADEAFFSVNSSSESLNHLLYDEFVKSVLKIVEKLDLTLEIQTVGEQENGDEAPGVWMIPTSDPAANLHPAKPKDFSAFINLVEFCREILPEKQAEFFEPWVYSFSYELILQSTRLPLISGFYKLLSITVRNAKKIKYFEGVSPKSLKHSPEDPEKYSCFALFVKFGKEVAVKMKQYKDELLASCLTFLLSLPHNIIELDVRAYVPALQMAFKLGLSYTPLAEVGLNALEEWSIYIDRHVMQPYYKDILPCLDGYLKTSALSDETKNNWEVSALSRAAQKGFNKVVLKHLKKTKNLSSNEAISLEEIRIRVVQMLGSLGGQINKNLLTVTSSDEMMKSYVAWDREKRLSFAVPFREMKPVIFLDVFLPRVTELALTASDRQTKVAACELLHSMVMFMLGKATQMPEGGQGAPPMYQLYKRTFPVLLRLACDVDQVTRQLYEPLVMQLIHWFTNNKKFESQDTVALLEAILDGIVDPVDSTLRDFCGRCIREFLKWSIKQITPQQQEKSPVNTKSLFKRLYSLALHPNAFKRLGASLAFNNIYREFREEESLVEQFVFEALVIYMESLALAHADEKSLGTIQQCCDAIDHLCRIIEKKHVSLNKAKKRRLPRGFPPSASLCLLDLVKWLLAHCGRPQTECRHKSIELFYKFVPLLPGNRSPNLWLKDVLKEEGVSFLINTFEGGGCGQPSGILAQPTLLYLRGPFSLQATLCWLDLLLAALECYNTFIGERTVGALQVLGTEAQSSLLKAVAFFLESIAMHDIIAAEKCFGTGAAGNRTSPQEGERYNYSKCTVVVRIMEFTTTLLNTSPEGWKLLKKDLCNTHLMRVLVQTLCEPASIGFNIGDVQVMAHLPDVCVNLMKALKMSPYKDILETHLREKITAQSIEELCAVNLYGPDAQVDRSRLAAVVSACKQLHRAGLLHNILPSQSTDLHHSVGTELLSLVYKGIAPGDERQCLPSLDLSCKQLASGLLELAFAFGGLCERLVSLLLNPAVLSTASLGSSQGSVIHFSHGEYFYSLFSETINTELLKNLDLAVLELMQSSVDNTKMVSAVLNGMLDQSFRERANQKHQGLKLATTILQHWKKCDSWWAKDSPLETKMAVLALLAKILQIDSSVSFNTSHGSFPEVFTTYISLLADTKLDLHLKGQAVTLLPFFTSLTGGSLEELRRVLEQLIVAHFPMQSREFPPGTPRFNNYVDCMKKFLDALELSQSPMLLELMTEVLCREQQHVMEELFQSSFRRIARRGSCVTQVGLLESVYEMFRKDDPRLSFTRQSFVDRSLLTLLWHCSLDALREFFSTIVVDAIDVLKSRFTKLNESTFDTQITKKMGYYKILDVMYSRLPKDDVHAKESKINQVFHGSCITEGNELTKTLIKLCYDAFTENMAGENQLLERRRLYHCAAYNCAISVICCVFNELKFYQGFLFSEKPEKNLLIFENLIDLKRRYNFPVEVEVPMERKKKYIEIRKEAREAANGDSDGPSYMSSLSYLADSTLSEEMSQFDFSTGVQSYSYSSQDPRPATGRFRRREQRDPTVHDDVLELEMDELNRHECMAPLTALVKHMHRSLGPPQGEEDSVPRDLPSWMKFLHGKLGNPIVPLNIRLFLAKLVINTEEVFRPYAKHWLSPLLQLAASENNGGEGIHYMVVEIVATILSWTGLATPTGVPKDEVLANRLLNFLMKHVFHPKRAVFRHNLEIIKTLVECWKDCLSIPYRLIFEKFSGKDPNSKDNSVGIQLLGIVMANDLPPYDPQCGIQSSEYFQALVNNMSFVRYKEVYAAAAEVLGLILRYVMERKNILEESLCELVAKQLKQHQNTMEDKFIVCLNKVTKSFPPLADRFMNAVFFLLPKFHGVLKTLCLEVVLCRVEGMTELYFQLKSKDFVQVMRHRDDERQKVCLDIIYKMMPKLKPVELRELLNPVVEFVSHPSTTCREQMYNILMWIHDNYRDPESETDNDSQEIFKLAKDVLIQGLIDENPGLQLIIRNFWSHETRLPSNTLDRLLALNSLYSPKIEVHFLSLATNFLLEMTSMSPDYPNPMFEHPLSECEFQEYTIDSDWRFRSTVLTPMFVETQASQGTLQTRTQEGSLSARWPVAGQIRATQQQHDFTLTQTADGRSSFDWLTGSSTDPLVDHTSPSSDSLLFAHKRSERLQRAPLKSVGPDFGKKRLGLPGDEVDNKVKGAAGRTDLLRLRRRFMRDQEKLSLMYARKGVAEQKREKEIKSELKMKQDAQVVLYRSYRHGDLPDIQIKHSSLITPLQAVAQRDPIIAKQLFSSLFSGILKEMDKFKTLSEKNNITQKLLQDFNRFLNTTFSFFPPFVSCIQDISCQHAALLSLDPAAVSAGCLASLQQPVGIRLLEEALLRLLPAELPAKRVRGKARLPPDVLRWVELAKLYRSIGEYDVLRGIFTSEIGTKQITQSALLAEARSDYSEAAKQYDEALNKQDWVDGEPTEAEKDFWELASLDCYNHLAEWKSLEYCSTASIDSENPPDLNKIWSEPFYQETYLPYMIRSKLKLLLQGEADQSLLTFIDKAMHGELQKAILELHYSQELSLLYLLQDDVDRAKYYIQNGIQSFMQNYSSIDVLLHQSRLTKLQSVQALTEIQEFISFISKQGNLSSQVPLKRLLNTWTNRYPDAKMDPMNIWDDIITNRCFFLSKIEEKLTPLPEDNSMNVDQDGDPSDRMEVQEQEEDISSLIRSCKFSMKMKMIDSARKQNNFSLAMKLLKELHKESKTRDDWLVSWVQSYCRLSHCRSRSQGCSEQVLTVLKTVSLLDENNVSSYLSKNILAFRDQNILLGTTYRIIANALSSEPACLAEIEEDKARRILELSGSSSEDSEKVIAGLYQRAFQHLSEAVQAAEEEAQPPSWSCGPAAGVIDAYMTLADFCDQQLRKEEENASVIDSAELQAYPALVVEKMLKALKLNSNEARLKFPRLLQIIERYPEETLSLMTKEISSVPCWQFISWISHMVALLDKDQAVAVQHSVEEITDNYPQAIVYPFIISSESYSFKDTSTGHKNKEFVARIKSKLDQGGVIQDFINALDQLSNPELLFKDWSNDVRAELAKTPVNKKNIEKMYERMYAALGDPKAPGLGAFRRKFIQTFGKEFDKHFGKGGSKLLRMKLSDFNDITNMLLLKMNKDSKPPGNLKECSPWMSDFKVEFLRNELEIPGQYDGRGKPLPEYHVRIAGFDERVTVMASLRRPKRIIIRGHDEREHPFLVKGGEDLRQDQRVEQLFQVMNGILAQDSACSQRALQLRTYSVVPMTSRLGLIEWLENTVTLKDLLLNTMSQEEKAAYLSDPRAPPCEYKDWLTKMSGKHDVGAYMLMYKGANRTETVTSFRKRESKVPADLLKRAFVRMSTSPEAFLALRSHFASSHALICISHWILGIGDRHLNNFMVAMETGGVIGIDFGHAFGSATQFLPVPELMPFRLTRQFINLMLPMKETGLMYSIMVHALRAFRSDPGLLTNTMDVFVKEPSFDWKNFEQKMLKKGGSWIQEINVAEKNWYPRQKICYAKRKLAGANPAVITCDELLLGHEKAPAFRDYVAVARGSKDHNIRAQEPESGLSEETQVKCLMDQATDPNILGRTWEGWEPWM

SMILES: O=c1cc(N2CCOCC2)oc2c(-c3cccc4c3sc3ccccc34)cccc12 [NU7441]
- mean frequency of a subset of large deletions (>3 base pairs) (DNA-PK [1]; [3]): increased
- mean frequency of single base insertions and small deletions (<3 base pairs) (DNA-PK [1]; [3]): decreased
- change of the DNA repair patterns compared with untreated samples (DNA-PK [1]; lowest concentration of inhibitor 1.56 μM, 12 different target sites, added one hour post nucleofection, harvested 48 hours): a change of the DNA repair patterns at 12 different target sites compared with untreated samples was apparent
- DNA repair outcomes (classes and frequency) compared with FIG. 6A (HEK293 without inhibitor) (DNA-PK [2]): different DNA repair outcomes
